Assays:
[1] = Proteolytic stability in human serum (HPLC); type: in vitro ADME; details: 37 °C
Procedure: These compounds were further explored towards degradation by proteolytic enzymes towards degradation. Compound 5a was investigated for proteolytic stability in the presence of human serum. It was incubated with human serum at 37 °C, and aliquots of the reaction mixture were analyzed via HPLC at different time points up to 2 h. The concentration of Compound 5a was measured by integrating the area under the curve (AUC) and correspondingly calculated from the standard curve of 5a at different concentrations (cf. Supplementary Materials, page no. 81–82).
The HPLC chromatogram of serum incubated with compound 5a for 80 min was illustrated in Figure 5. […]
HPLC analysis was carried out to evaluate the proteolytic stability of selected conjugate 5a in the presence of human serum. First, different concentrations of Compound 5a were analyzed using the analytical HPLC, and a standard curve was plotted for the different concentrations of Compound 5a versus the area under the curve. […] The initial time was recorded, and 100 μL aliquots of the reaction mixture were removed and added to methanol (200 μL) for precipitation of serum proteins in human serum. […] A linear gradient from 10% to 100% acetonitrile/water in 65 min with a flow rate of 1.0 mL/min was used, and the absorbance of the eluting peaks was detected at 254 nm. […]

[2] = test system: MDA-MB-231 cells; assay: Annexin V-FITC/PI apoptosis assay by flow cytometry; type: cell-based, human
Procedure: In accordance with the MTS assay, compound 5a had promising antiproliferative action. Therefore, we attempted to study the mechanism triggering cell death. […] MDA-MB-231 cells were treated with 5 μM of compound 5a and Dox (5 μM) as a positive control and incubated for 72 h, then double-stained carefully by membrane-linked protein Annexin-V fluorescein isothiocyanate (FITC) and propidium iodide (PI) for flow cytometry analysis. Normally, in the early stages of apoptosis, phosphatidylserine flips from the inner cell membrane to the surface of the cell membrane. […] PI is a nucleic acid dye that can only cross the membrane of advanced apoptosis and necrotic cells and redden the nucleus. Consequently, when the treated cells are double stained by the two fluorescent dyes, early and late apoptosis and necrotic cells can be clearly distinguished. […] These findings illustrated that compound 5a mainly leads to the early apoptosis of MDA-MB-231 cells.
The assay was detected using a commercially available kit (FITC Annexin V Apoptosis Detection Kit II, BD Biosciences, San Jose, CA, USA) per the manufacturer’s instructions. Briefly, MDA-MB-231 cells were seeded in 6-well plates at a concentration of 1 × 10^6 cells/well for 24 h; after that, cells were treated with 5a (5 µM) for 72 h. Dox (5 µM) was used as a positive control. After the treatment period, cells were washed with cold phosphate-buffered saline (PBS) twice. The cells were collected after trypsin treatment and centrifugated to get a pellet, and a binding buffer (1X) was used to resuspend the cells. Annexin V (5 μL) and propidium iodide (PI) (5 μL) were mixed with 100 μL of the suspended cells (1 × 10^6 cells/mL), followed by 15 min incubation at room temperature in the dark. The mixture was diluted by adding 400 μL of 1× binding buffer, and the cells were analyzed using flow cytometry, FACS Verse (BD Biosciences, USA). The experiment was repeated three times independently.

## Cc1noc(C)c1C(=O)OCc1coc2ccccc2c1=O [Compound 5a, (4-Oxo-4H-1-benzopyran-3-yl)methyl 3,5-dimethylisoxazole-4-carboxylate]
[1]; after 2 h of incubation with human serum
  degradation on incubation with human serum: completely degraded
[1]; human, human serum (25% v/v in RPMI media), human serum
  half-life at 50 µM: ~13.6 min
[2]; 5 μM concentration, compared to untreated cells
  induced apoptosis in MDA-MB-231: 50.8%
[2]; MDA-MB-231, 5 μM, 72 h
  Early Apoptosis: 47.52%
  Late Apoptosis: 3.28%

Reference: publication PMC10224329, “Design, Synthesis, and Antiproliferative Activity of Benzopyran-4-One-Isoxazole Hybrid Compounds” (Molecules, 2023)
